One data set deals with tonic convulsion. The experiment in a line: Electroshock test (anti-convulsive properties). Type of data set: in vivo. As to conditions: ip, read-out: Anti-convulsive properties, Electroshock test ED200 i.p. The source says: ^(1) The ED200 is the dose of the test compound (in mg/kg) which
necessitates a 100% increase of the current intensity to bring about a
tonic convulsion in 50% of the test animals.

The subject of data set [1] is Pentylenetetrazole (PTZ) cramp condition. Briefly: PTZ (pentylenetetrazole) test (anti-convulsive properties). As to conditions: ip, read-out: Anti-convulsive properties, PTZ test ED50 i.p. Type of data set: in vivo. An excerpt: ^(2) Pentylenetetrazole (i.e. PTZ) directly activates the nerve
endings, leading to a cramp condition.

The next data set relates to benzodiazepine receptors. Briefly: Antagonism of anti-convulsive effect by benzodiazepine antagonist Ro 15-1788. As to conditions: administration of Ro 15-1788. Type of data set: in vivo.
Data set [2] is described as follows: Rotarod (neurotoxicity and sedation). The conditions noted are these: ip.
The nature of data set [3]: Shuttle box (neurotoxicity and sedation). The conditions noted are these: ip.

Counter-ions that a name gives are not always drawn. Like-named read-outs stand apart in the source and are kept apart here.

What is called ED50 is the midpoint of the dose-response relation. Consider `CN1C(=O)CN=C(c2ccccc2)c2cc(Cl)ccc21` [diazepam], for which the ED200 in the data set on tonic convulsion is 14 mg/kg. For the same molecule, in data set [1], the ED50 came out at 0.5 mg/kg. Further, in the data set with benzodiazepine receptors, the “Effect of benzodiazepine antagonist (Ro 15-1788) on the anti-convulsive effect” value is on record as “completely counteracted”.

A word on the TD50: it is the 50% point of the dose-response relation for the toxic effect studied. Read a high TD50 as lower toxicity. Take `O=C1NC(=O)C(c2ccccc2)(c2ccccc2)N1` [diphenyl hydantoin]: in the data set with tonic convulsion (dose necessitating a 100% increase of current intensity to bring about tonic convulsion in 50% of test animals), the ED200 is 15 mg/kg. Further, the ED50 in data set [1] (pentylenetetrazole) is 22 mg/kg. For the same molecule, the TD50 in data set [2] and in data set [3] was 100 mg/kg in each case.

As for `CN(C)C1C2C=CCC1c1ccccc1C2` (stereo not drawn), the ED200 in the data set on tonic convulsion came out at 11 mg/kg. The ED50 in data set [1] is 10 mg/kg. Further, the results for the TD50 in data set [2] and in data set [3] were 70 mg/kg and over 46 mg/kg, respectively.

Take `CCCC(CCC)C(=O)O` [sodium salt of valproic acid]: the ED200 in the data set on tonic convulsion is 180 mg/kg. Also, the ED50 in data set [1] was determined as 30 mg/kg. For the same molecule, the TD50 in data set [2] stood at 230 mg/kg; in data set [3] it was 350 mg/kg.

The values above are taken from patent US4551479A, “Compounds with anti-convulsive properties” (Akzo N.V., priority 1983, dated 1985).
